# Source: US4745124A, “Orally effective anti-hypertensive agents” (priority 1983, dated 1988)
# Assays:
# [1] = tested on: pressor effects of angiotensin I; test: oral effectiveness: blood pressure response to angiotensin I in anesthetized rats; assay type: in vivo, rat; conditions: oral 10 μmol/kg, Ex. 244
# Description: Rats (210-290 g body weight) were fasted overnight and then anesthetized with intraperitoneal pentobarbital, 50-60 mg/kg. Tracheostomy was performed and the animals were ventilated mechanically. A cannula was inserted into a femoral vein for injection of angiotensin I or II, and a second cannula was inserted into a common carotid artery for direct measurement of arterial blood pressure. Heparin, 1,000 units, was injected via the femoral vein to prevent coagulation. Blood pressure was measured with a pressure transducer connected to a polygraph. The rats were injected with 80 ng of angiotensin I or angiotensin II in 20 μl of 0.9 g % NaCl; an amount of antiotensin I or II sufficient to raise mean arterial blood pressure by 27-40 mm Hg. After the responsiveness of a given rat to angiotensins I and II was established, compound (I), at 2 or 5 mg/kg (drug dissolved in 0.5 ml of H2 O plus 10 μl of 1N NaHCO3), was given via a stomach tube. At timed intervals, the effects of 80 ng of angiotensin I or angiotensin II on mean arterial blood pressure were tested.
# Rats were prepared as described in Example 222. Compound (II) [N-benzoyl-L-phenylalanylthiopropanoyl)-L-proline] was given orally, via a stomach tube, at a dose of 12 mg/kg or 20 mg/kg. Compound (II) was dissolved in 0.5 ml of H2 O plus 10 μl of 1N NaHCO3. In all other respects, the experimental preparations were exactly as described in Example 222.
# Rats (210-290 g body weight) were fasted overnight and then anesthetized with intraperitoneal pentobarbital, 50-60 mg/kg. Tracheostomy was performed and the animals were ventilated mechanically. A cannula was inserted into a femoral vein for injection of angiotensin I or II, and a second cannula was inserted into a common carotid artery for direct measurement of arterial blood pressure. Heparin, 1,000 units, was injected via the femoral vein to prevent coagulation. Blood pressure was measured with a pressure transducer connected to a polygraph. The rats were injected with 160 ng of angiotensin I or 80 ng of angiotensin II in 20 μl of 0.9 g % NaCl; an amount of angiotensin I or II sufficient to raise mean arterial blood pressure by 27-40 mm Hg. After the responsiveness of a given rat to angiotensins I and II was established, compound (B) at 10 mg (drug dissolved in 0.5 ml of H2 O plus 10 μl of 1N NaHCO3), was given via a stomach tube. At timed intervals, the effects of 160 ng of angiotensin I or 80 ng of angiotensin II on mean arterial blood pressure were tested. Results are shown below:
# Rats (210-290 g body weight) were fasted overnight and then anesthetized with intraperitoneal pentobarbital, 50-60 mg/kg. Tracheostomy was performed and the animals were ventilated mechanically. A cannula was inserted into a femoral vein for injection of angiotensin I, and a second cannula was inserted into a common carotid artery for direct measurement of arterial blood pressure. Heparin, 1,000 units, was injected via the femoral vein to prevent coagulation. Blood pressure was measured with a pressure transducer connected to a polygraph. The rats were injected with 400 ng/kg of angiotensin I in 20 μl of 0.9 g % NaCl; an amount of angiotensin I sufficient to raise mean arterial blood pressure by 39 mm Hg. After the responsiveness of a given rat to angiotensin I was established, the named compound at 17 μmol/kg (drug dissolved in 0.15 ml of H2 O plus 10 μl of 1N NaHCO3), was given via a stomach tube. At timed intervals, the effects of 400 ng/kg of angiotensin I on mean arterial blood pressure were tested. Results are shown below:
# Rats (190-290 g body weight) were fasted overnight and then anesthetized with intraperitoneal pentobarbital, 50-60 mg/kg. Tracheostomy was performed and the animals were ventilated mechanically. A cannula was inserted into a femoral vein for injection of angtiotensin I, and a second cannula was inserted into a common carotid artery for direct measurement of arterial blood pressure. […]
# [2] = tested on: pressor effects of angiotensin I; test: intravenous effectiveness: blood pressure response to angiotensin I in anesthetized rats; assay type: in vivo, rat; conditions: i.v. 1 μmole/kg, Ex. 245
# Description: (§1) Anesthetized rats were prepared as described in Example 228. After the responsiveness of a given rat to angiotensin I was established, the named compound at 2 μmol/kg, in a volume of 15 μl of 0.01N sodium bicarbonate, was injected via a femoral vein. At timed intervals, the effects of angiotensin I, 400 ng/kg, on mean arterial blood pressure were tested. Results are shown below:
# as §1, with “231.” for “228.”, “compound,” for “compound”
# Anesthetized rats were prepared as described in Example 239. The animals were administered the named compound via a femoral vein in 15 μl of 0.01N sodium bicarbonate, after the control response to 400 ng/kg of angiotensin I was measured. […] The time required for recovery of one half of the lost responsiveness to angiotensin I, following injection of the named compound, was designated t1/2. […] Results are shown for two dose levels:
# Anesthetized rats were prepared as described in Example 242. The named compound was administered intravenously via a femoral vein, at the stated dose, in 15 μl of 0.01N sodium bicarbonate. The response to intravenous administration was a rapid decrease in responsiveness to Angtiotensin I, 400 ng/kg, followed by a gradual recovery to the pretreatment level of responsiveness. The time required for recovery of one half the lost responsiveness to angiotensin I, following injection of the named compound, is designated t1/2. […] Results are shown for the three dose levels:
# The intravenous effectiveness of the named compound was examined by following the procedure described in Example 244 except that 1 μmole/kg of the drug was given intravenously. The results are shown below:
# The intravenous effectiveness of the named compound was examined by following the procedure described in Example 246 except that 1 μmole/Kg of the drug was given intravenously.
compound,measurement,setting,value
C[C@H](CSC(=O)[C@@H](N)CCC(=O)O)C(=O)N1CCC[C@H]1C(=O)O [N-alpha-[3-(L-alpha-glutamylthio)-2-D-methyl-propanoyl]-L-proline],Blood Pressure Response to 400 ng/kg of Angiotensin I,[1]; 9 min,66 % of Control
same,Blood Pressure Response to 400 ng/kg of Angiotensin I,[1]; 18 min,39 % of Control
same,Blood Pressure Response to 400 ng/kg of Angiotensin I,[1]; 26 min,39 % of Control
same,Blood Pressure Response to 400 ng/kg of Angiotensin I,[1]; 33 min,26 % of Control
same,Blood Pressure Response to 400 ng/kg of Angiotensin I,[1]; 39 min,18 % of Control
same,Blood Pressure Response to 400 ng/kg of Angiotensin I,[1]; 45 min,18 % of Control
same,Blood Pressure Response to 400 ng/kg of Angiotensin I,[1]; 53 min,13 % of Control
same,Blood Pressure Response to 400 ng/kg of Angiotensin I,[1]; 64 min,13 % of Control
same,Blood Pressure Response to 400 ng/kg of Angiotensin I,[1]; 77 min,26 % of Control
same,Blood Pressure Response to 400 ng/kg of Angiotensin I,[1]; 89 min,26 % of Control
same,Blood Pressure Response to 400 ng/kg of Angiotensin I,[1]; 111 min,24 % of Control
same,Blood Pressure Response to 400 ng/kg of Angiotensin I,[1]; 125 min,26 % of Control
same,Blood Pressure Response to 400 ng/kg of Angiotensin I,[2]; 0.5 min,13 % of Control
same,Blood Pressure Response to 400 ng/kg of Angiotensin I,[2]; 3 min,13 % of Control
same,Blood Pressure Response to 400 ng/kg of Angiotensin I,[2]; 7 min,13 % of Control
same,Blood Pressure Response to 400 ng/kg of Angiotensin I,[2]; 11 min,21 % of Control
same,Blood Pressure Response to 400 ng/kg of Angiotensin I,[2]; 22 min,21 % of Control
same,Blood Pressure Response to 400 ng/kg of Angiotensin I,[2]; 28 min,18 % of Control
same,Blood Pressure Response to 400 ng/kg of Angiotensin I,[2]; 37 min,29 % of Control
same,Blood Pressure Response to 400 ng/kg of Angiotensin I,[2]; 47 min,37 % of Control
same,Blood Pressure Response to 400 ng/kg of Angiotensin I,[2]; 56 min,39 % of Control
same,Blood Pressure Response to 400 ng/kg of Angiotensin I,[2]; 82 min,53 % of Control
same,Blood Pressure Response to 400 ng/kg of Angiotensin I,[2]; 92 min,71 % of Control
